What was measured:
mice [1] = assay: Cardiazol shock (anticonvulsive / anxiolytic effect); assay type: in vivo; conditions: Mus musculus, 1 h, oral, one hour before 150 mg/kg s.c. Cardiazol, 50% of animals with marked anticonvulsive effect
Text: The compounds of the present invention have a pronounced anxiolytic activity, i.e., they relieve or reduce anxiety. Such activity naturally cannot be measured directly in animals. […] A method for testing whether a compound has anticonvulsive properties and also therewith is anxiolytically active is the Cardiazol-Shock Method.
In order to compare the therapeutic value of the compounds of the present invention with the most closely related compounds in Littell U.S. Pat. No. 3,314,941 and Reeder U.S. Pat. No. 3,371,085 tests were conducted comparing the properties of the compounds of the present application and the Littell and Reeder patents in regard to anxiolytic effect (tested by Cardiazol-Shock).
The Cardiazol shock procedure was carried out according to the method of F.M. Berger et al in J. Pharmacol. Exper. Therap. Vol. 116, pages 337-342 (1956). With mice the subcutaneous injection of 150 mg/kg of Cardiazol first results in short lasting spasms, then long lasting and strong spasms and finally results in the death of all of the animals within 10 to 15 minutes. By the oral administration of the anticonvulsive acting test materials at various dosages one hour prior to the administration of the Cardiazol, the 100% lethal effect of the Cardiazol is reduced depending on the dosage. From the percentage of surviving animals in the individual test groups there was plotted graphically the dosage-effect line and from this the ED50 value was ascertained.

mice [2] = assay: rotating rod test (ataxic effect); assay type: in vivo; conditions: quotient of ED50 ataxia / ED50 Cardiazol shock; should be as large as possible
Text: (§1) Furthermore, there is given in this table the ataxic activity. The ratio of ataxic activity to the anxiolytic activity is of the greatest significance in using a material as an anxiolytic agent. This quotient should be as large as possible since an ataxic activity is undesirable. Ataxic activity means that the coordination of the muscular movements is disturbed -- ataxic disturbance of the muscular coordination. This means at the dosage at which a marked anxiolytic activity is present there should not be found a noteworthy ataxice. The toxicity, in case the data exists above the ataxic activity, is no longer important since the amount which is toxic is always considerably higher than the amount at which 50% (ED50) of the animals have an ataxic effect. The ataxic effect was measured on mice on the pattern of the rotating rod.
(§2) In the rotating rod test the animals (mice) were firest placed on a rotating rod 15 minutes after the application of the test material and then were placed on the rotating rod every 15 minutes and the animals which fell down within 2 minutes measured positive. From the number of animals which fell down expressed in per cent there were drawn time-effect curves and the areas defined by it entered as percent effect in a probability network, the dosage-effect-line prepared and the ED50 read off. The ED50 mg/kg body weight of the mouse again specifies the dosage at which 50% of all the animals show a typical ataxic effect.

[3] = rotating rod test (ataxic effect); assay type: in vivo, mice; conditions: mouse, rotating rod test; mice; oral; 50% of animals show a typical ataxic effect; read-out: ED50, ataxic effect (rotating rod)
Text: as §1, §2

[4] = literature; cited from earlier work
[5] = First Int. Pharmacological Meeting, Vol. 7, pages 311 et seq.; cited from earlier work
[6] = on introduction of p-chlorine and alpha-methyl; literature; cited from earlier work

| Structure (SMILES) | ED50 (mice [1]) | ratio of ataxic activity to the anxiolytic activity (mice [2]) | TD50 [3] | antihistamine activity [4] | stimulating activity [5] | anticholinergic activity [6] |
| --- | --- | --- | --- | --- | --- | --- |
| CC1N=C(c2ccccc2)c2nc(Cl)ccc2NC1=O (racemic) [Example 4, 3-Methyl-5-phenyl-6-aza-7-chloro-1,2-dihydro-3H-1,4-benzodiazepinone-(2)] | 18 mg/kg | 4.3 | 78 mg/kg | – | – | – |
| CN(C)CCCN1c2ccccc2Sc2ccc(Cl)cc21 [Chlorpromazine] | – | – | – | practically no antihistamine activity | – | – |
| O=C1CN=C(c2ccccc2)c2nc(Cl)ccc2N1 [Example 1, 5-Phenyl-6-aza-7-chloro-1,2-dihydro-3H-1,4-benzodiazepinone-(2)] | 6.3 mg/kg | 11.4 | 72 mg/kg | – | – | – |
| O=C1CN=C(c2ccccc2Cl)c2nc(Cl)ccc2N1 [Example 6, 5-(o-Chlorophenyl)-6-aza-7-chloro-1,2-dihydro-3H-1,4-benzodiazepinone-(2)] | 2.72 mg/kg | 16.5 | 45 mg/kg | – | – | – |
| CN1C(=O)CN=C(c2ccccc2F)c2nc(Cl)ccc21 [Example 9, 1-Methyl-5-(o-fluorophenyl)-6-aza-7-chloro-1,2-dihydro-3H-1,4-benzodiazepinone-(2)] | 1.58 mg/kg | 6.1 | 9.7 mg/kg | – | – | – |
| O=C1CN=C(c2ccccc2F)c2nc(Cl)ccc2N1 [Example 10, 5-(-Fluorophenyl)-6-aza-7-chloro-1,2-dihydro-3H-1,4-benzodiazepinone-(2)] | 1.63 mg/kg | 10.4 | 17 mg/kg | – | – | – |
| O=C(O)CCC(=O)OC1N=C(c2ccccc2Cl)c2nc(Cl)ccc2NC1=O (stereo not shown) [Example 12] | 7.4 mg/kg | 13.5 | 100 mg/kg | – | – | – |
| O=C1Nc2ccc(Cl)nc2C(c2ccccc2Cl)=NC1O (stereo not shown) [Example 13, 3-Hydroxy-5-o-chlorophenyl-6-aza-7-chloro-1,2-dihydro-3H-1,4-benzodiazepinone-(2)] | 2.4 mg/kg | 15.0 | 36 mg/kg | – | – | – |
| CC(=O)OC1N=C(c2ccccc2Cl)c2nc(Cl)ccc2N(C(C)=O)C1=O (stereo not shown) [Example 15, 1-Acetyl-3-acetoxy-5-(o-chlorophenyl)-6-aza-7-chloro-1,2-dihydro-3H-1,4-benzodiazepinone-(2)] | 15 mg/kg | 6.7 | 100 mg/kg | – | – | – |
| CN1C(=O)CN=C(c2ccccc2)c2nc(Cl)ccc21 [Example 17, 1-Methyl-5-phenyl-6-aza-7-chloro-1,2-dihydro-3H-1,4-benzodiazepinone-(2)] | 4.2 mg/kg | 6.2 | 26 mg/kg | – | – | – |
| C=CCN1C(=O)CN=C(c2ccccc2)c2nc(Cl)ccc21 [Example 18, 1-Allyl-5-phenyl-6-aza-7-chloro-1,2-dihydro-3H-1,4-benzodiazepinone-(2)] | 11 mg/kg | 8.2 | 90 mg/kg | – | – | – |
| O=C1CN=C(c2ccccc2)c2nc(Cl)ccc2N1CC1CC1 [Example 19] | 9.75 mg/kg | 7.7 | 75 mg/kg | – | – | – |
| CN1C(=O)CN=C(c2ccccc2Cl)c2nc(Cl)ccc21 [Example 21, 1-Methyl-5-(o-chlorophenyl)-6-aza-7-chloro-1,2-dihydro-3H-1,4-benzodiazepinone-(2)] | 0.98 mg/kg | 10.2 | 10 mg/kg | – | – | – |
| CN1C(=S)CN=C(c2ccccc2Cl)c2nc(Cl)ccc21 [Example 24, 1-Methyl-5-(o-chlorophenyl)-6-aza-7-chloro-1,2-dihydro-3H-1,4-benzodiazepinthione-(2)] | 3.3 mg/kg | 12.5 | 39 mg/kg | – | – | – |
| CC(NN)c1ccccc1 (stereo not drawn) [alpha phenyl-ethyl hydrazine] | – | – | – | – | strong stimulating activity | – |
| CN(C)CCOC(C)(c1ccccc1)c1ccc(Cl)cc1 (stereo not shown) [chlorphenoxamine] | – | – | – | reduced | – | strengthening |

Source: patent US4008223A, “6-Aza-3H-1,4-benzodiazepines” (Deutsche Gold- und Silber-Scheideanstalt vormals Roessler, priority 1971, dated 1977)
